Experimental data: US6262017A, “Peptides for altering osteoblast adhesion” (Research Corporation Technologies, Inc., priority 1998, dated 2001)
Peptide text beside a SMILES is read from it.

Key:
osteoblasts [1] = test: Osteoblast four-hour adhesion on peptide-modified glass substrates; format: cell-based
Text: Using standard protocols, 3-aminopropyltriethoxysilane was used to immobilize exposed amine groups on the surfaces of glass substrates, and 1-ethyl-3-(3dimethylaminopropyl)carbodimide was used to bind peptides having the sequence KRSRGGG (SEQ ID NO:4) to the exposed amine groups on the glass substrates.
(§1) Peptides were immobilized on substrate surfaces (borosilicate glass, 18 mm round coverslips; Fisher) using silane coupling techniques adapted from published protocols [Weetall Applied Biochem. Biotech. 41, 158-188 (1993); Robinson et al. Biochim. Biophys. Acta 242, 659-661 (1971); and Baum et al. Biochim. Biophys. Acta 268, 411-414 (1972)], the disclosures of which are incorporated herein by reference. Briefly, 3-aminopropyltriethoxysilane (Sigma) was allowed to react with hydroxyl groups on the material surfaces to produce "aminophase" substrates.
(§2) In preparing for peptide immobilization, borosilicate glass coverslips (Fisher) were etched for one hour in a 3:1 (v/v) solution of 2 N sulfuric acid and 2 N nitric acid, degreased in acetone and ethanol, and rinsed with distilled water. The degreased and acid-etched substrates were placed in glass petri dishes which had been previously cleaned with a 3.5% solution of 30% hydrogen peroxide in 18 M sulfuric acid.
(§3) The substrates were dried at 160° C. for at least one hour, rinsed with dry acetone, and immersed in 2% 3-aminopropyltriethoxysilane in dry acetone, supplemented with 2% triethylamine under an argon atmosphere at […] for one hour. The substrates were rinsed (under an argon atmosphere) once with methylene chloride and twice with dry acetone, and cured under argon at 120° C. for three hours.
(§4) Peptides were covalently bound to immobilized exposed amine groups on the substrate surfaces during a twenty-minute incubation (under argon) with a 25:25:1 (v/v/v) solution of peptide (0.1 mM in dry N,N-dimethylformamide):1-ethyl-3-(3-dimethylaminopropyl)carbodiimide (2.5 mg/mL in dry N,N-dimethylformamide): n-ethylmorpholine. Unreacted amine groups were passivated by soaking peptide-modified substrates in acetic anhydride for 5 minutes; absorbed peptides were then removed by soaking for 5 minutes in 4 M urea, rinsing in distilled water, and soaking for 5 minutes in 1 M sodium chloride. Peptide-modified substrates were then thoroughly rinsed in distilled water prior to sterilization and use.
(§5) Substrates which had been etched in a 3:1 (v/v) solution of 2 N sulfuric acid: 2 N nitric acid, degreased in acetone and ethanol, and rinsed copiously with distilled water were used as references. Glass substrates were sterilized via overnight ultraviolet irradiation prior to use in experiments.

[2] = test system: BMD osteoblast-like cells; test: BMD osteoblast-like two-hour competitive adhesion on KRSRGGG-modified substrates; format: cell-based
Procedure: The effect of pre-incubation of BMD osteoblast-like and osteoclast-like cells was also examined with similar results (Tables 8 and 9).

calvarial osteoblasts = test: Calvarial osteoblast two-hour competitive adhesion on KRSRGGG-modified substrates after pre-incubation with soluble peptide; format: cell-based
[3] = test system: bone marrow derived (BMD) osteoblast-like cells; test: Bone marrow-derived osteoblast-like cell four-hour adhesion on peptide-modified glass; format: cell-based; conditions: Table 2, peptide immobilized on glass
Text: as §1, §2
as §3, with “hours. […]” for “hours.”

endothelial cells = test: Endothelial cell four-hour adhesion on peptide-modified glass; format: cell-based; conditions: for Cell density, Average: four-hour adhesion, peptide immobilized on glass
Text: as §1, §2, §3, §4
as §5, with “In all experiments performed in the present invention, substrates which had been aminated but not peptide-grafted (i.e., aminophase substrates) were used as controls. Substrates” for “Substrates”

[4] = test system: BMD osteoclasts (bone-resorbing cells); test: Four-hour adhesion of Table 3 (title: BMD osteoblast-like cell; text: BMD osteoclasts) on peptide-modified glass; format: cell-based; conditions: for Cell density, Average: Table 3, four-hour adhesion, peptide immobilized on glass
Text: as §1, §2, §3
as §4, with “use. […]” for “use.”

fibroblasts = test: Fibroblast adhesion on peptide-modified surfaces; format: cell-based; conditions: surfaces modified with peptide
osteoblasts [5] = test: Osteoblast four-hour adhesion in the absence and presence of 0.2 U/ml heparinase; format: cell-based; conditions: for Cell density, Average: Table 10, four-hour adhesion
Text: The heparinase used degrades heparan sulfate in a very selective manner.
as §1, §2, §3, §4
as §5, with “In all experiments performed in the present invention, substrates which had been aminated but not peptide-grafted (i.e., aminophase substrates) were used as controls. Substrates” for “Substrates”

osteoblasts [6] = conditions: cultured for two weeks on peptide-modified Ti-6Al-4V
Text: In the present study, medical grade Ti-6Al-4V stock (ASTM F-136; Osteonics) was sectioned into coupons using a low-speed saw equipped with a diamond wafering blade. The metal coupons were then polished to a 30 micron finish via sanding (using 600 grit paper on a sanding wheel), polishing to a 15 micron finish and then to a 9 micron finish (using diamond spray on a polishing wheel), and finally polishing to a 3 micron finish using aluminum oxide (Al2 O3) mixed with 30% hydrogen peroxide on a polishing wheel), according to standard techniques. Polished metal coupons were degreased with acetone and ethanol and rinsed copiously with distilled water before peptides were immobilized on the metal surfaces (via the aforementioned techniques).

[7] = Table 6, KRSR peptides of different lengths on glass
[8] = Table 8, peptide concentration 0.5 mM
[9] = Table 8, peptide concentration 1.0 mM
[10] = Table 8, peptide concentration 1.5 mM
[11] = Table 8, peptide concentration 2.0 mM
[12] = Table 1, peptide immobilized on glass
[13] = Table 4 (second, identical print)

Molecule	Cell density, Average (osteoblasts [1]; Table 5, KRSR vs HHWH on glass) [Cells/cm^2]	Cell density, Average (osteoblasts [1]; [7]) [Cells/cm^2]	Cell Adhesion expressed as % control [2, 8] [% control]	Cell Adhesion expressed as % control [2, 9] [% control]	Cell Adhesion expressed as % control [2, 10] [% control]	Cell Adhesion expressed as % control [2, 11] [% control]	Cell density, Average [3] [Cells/cm^2]	Cell density, Average (osteoblasts [1]; [12]) [Cells/cm^2]	Cell density, Average (endothelial cells; Table 4 (first print)) [Cells/cm^2]	Cell density, Average (endothelial cells; [13]) [Cells/cm^2]	Cell density, Average [4] [Cells/cm^2]	Cell density, Average (osteoblasts [5]; Heparinase 0.2 U/ml) [Cells/cm^2]	Cell density, Average (osteoblasts [5]; Heparinase none) [Cells/cm^2]	other results
H-Lys-Arg-Ser-Arg-OH (H-KRSR-OH)	1508	1508	–	–	–	–	–	–	–	–	–	–	–	–
KRSRQGGGGG [KRSR peptide of a different (longer) spacer length attached to the substrate]	–	1708	–	–	–	–	–	–	–	–	–	–	–	–
N=C(N)NCCC[C@H](NC(=O)[C@H](CO)NC(=O)[C@H](CO)NC(=O)[C@@H](N)CCCCN)C(=O)NCC(=O)NCC(=O)NCC(=O)O [KSSRGGG, Lysine-Serine-Serine-Arginine-Glycine-Glycine-Glycine, reference compound] (H-KSSRGGG-OH)	–	–	109.52	93.65	101.59	107.94	–	–	–	–	–	–	–	–
N=C(N)NCCC[C@H](NC(=O)[C@H](CO)NC(=O)[C@H](CCCNC(=N)N)NC(=O)[C@@H](N)CCCCN)C(=O)NCC(=O)NCC(=O)NCC(=O)O [KRSRGGG, H-Lys-Arg-Ser-Arg-(Gly)3 --OH] (H-KRSRGGG-OH)	–	1770	81.63	78.91	66.67	55.5	2332	2145	1600	1600	2377	330	2145	Effect of pre-incubation of osteoblasts with peptide on adhesion to KRSR-modified substrate (in words) (calvarial osteoblasts): significant decrease in adhesion; Endothelial cell adhesion to peptide-modified surfaces (in words) (endothelial cells; surfaces modified with peptide): do not adhere in significantly greater numbers; BMD osteoclast adhesion versus other treated or untreated surfaces (in words) ([4]; peptide-modified surfaces): in greater numbers; Fibroblast adhesion to peptide-modified surfaces (in words) (fibroblasts): do not adhere in significantly greater numbers; Effect of heparinase treatment on osteoblast adhesion (in words) (osteoblasts [5]; heparinase treatment, peptide-modified substrate): significantly inhibited adhesion
Histidine-Histidine-Tryptophan-Histidine (HHWH) [reference compound]	1080	–	–	–	–	–	–	–	–	–	–	–	–	–
Arginine-Aspartic Acid-Glycine-Serine [RDGS, reference compound]	–	–	–	–	–	–	1712	1656	1570	1570	2188	378	1656	Osteoblast morphology and cytoskeletal organization (osteoblasts [6]): normal morphology and cytoskeletal organization
